The text below walks through data of patent US10085993B2, “Tablet formulation of 2-fluoro-N-methyl-4-[ 7-( quinolin-6-ylmethyl) imidazo [1,2-B] [1,2,4] triazin-2-yl] benzamide” (Novartis AG, priority 2014, dated 2018).

Each structure is given as a SMILES string. Where a name gives a salt, the structure may show the parent alone.

The nature of one data set: Bulk density. The class given is physicochemical. The text has this:
2-fluoro-N-methyl-4-[7-(quinolin-6-ylmethyl)imidazo[1,2-b][1,2,4]triazin-2-yl]benzamide dihydrochloride has a very low bulk density (0.085 g/mL), which justifies the need of a densification step prior tabletting. Wet granulation was identified as the most suitable technology for this compound.

The nature of data set [1]: Solubility at different pH.
The next data set can be described thus: Gelling behavior. The class given is physicochemical. The settings on record: gelling can compromise tablet disintegration and dissolution rate. From the text:
2-fluoro-N-methyl-4-[7-(quinolin-6-ylmethyl)imidazo[1,2-b][1,2,4]triazin-2-yl]benzamide dihydrochloride has a gelling behavior, mostly prominent at pHs above 3.5, which can compromise tablet disintegration and dissolution rate. Drug load and disintegrant type/levels can influence this behavior and need to be carefully selected to ensure adequate in vitro performance.

The compound `CNC(=O)c1ccc(-c2cnc3ncc(Cc4ccc5ncccc5c4)n3n2)cc1F` [2-fluoro-N-methyl-4-[7-(quinolin-6-ylmethyl)imidazo[1,2-b][1,2,4]triazin-2-yl]benzamide dihydrochloride] gave a bulk density in “Bulk density” of 0.085 g/mL. The solubility in data set [1] (pH 1, simulated gastric fluid) was 7200 µg/mL; in data set [1] (pH 6.8, aqueous buffer) it was 79.3 µg/mL. The “pH at which gelling behavior is mostly prominent” value in “Gelling behavior” is “above 3.5”.
